The values below come from patent publication US9579325B2, “Modulators of TNF-α signaling” (Genzyme Corporation, priority 2000, dated 2017).

The nature of data set [1]: Pharmacokinetic parameters. It is filed as in vivo. Conditions: in vivo.
Data set [2] deals with Normal human dermal fibroblasts. The data set is described as follows: TNF-α induced apoptosis in primary human fibroblasts. It is filed as cell-based. Conditions: for OD 595 nm: 2 ng/ml TNF-α 24 hours, crystal violet. The source says: (§1) Description of Table V: The results shown in Table V were obtained using the TNF-α assays performed as described in the protocols entitled “Method for TNF High Throughput Screen” and “Method for VCAM High Throughput Screen”, which are detailed below. These assays measure a cellular response to TNF-α stimulation, and the data published in the table are expressed as percentage inhibitions. Percentage inhibition is computed on a scale of 0 to 100% where 0 percent inhibition means the compound has no effect in the assay (the response is indistinguishable from TNF-α treatment alone), and 100% inhibition means that when the compound is present at the stated concentration, the response in the assay is the same as if TNF-α were not added. These two assays measure two different outcomes of TNF-α treatment, cell death and Vascular Cell Adhesion Molecule (VCAM) expression, and capture two of TNF-α's many biological effects. TNF-α induced apoptosis is a mechanism by which TNF-α production during immune/inflammatory responses can lead to direct cellular and tissue damage. TNF-α VCAM expression in endothelial cells is a response that allows leukocytes to leave the blood and enter a site of immune/inflammatory response. Both of these activities could lead to pathology in immune/inflammatory diseases. In the first column of the table, the percentage inhibition of the TNF-α driven apoptosis assay when the compounds are tested at 1 μM concentration is presented. The second column in the table lists the IC50 for the compound, a standard measure using a dilution series in the assay, and fitting a sigmoidal curve to the resulting dose-response curve. The IC50 is the concentration (derived analytically from the sigmoidal function) at which the compound would inhibit 50% of the response in the assay. The third and fourth column list the corresponding analysis for the TNF-α driven VCAM assay. In Table VI, data corresponding to the data in column 1 of Table V is shown, with human cells replacing the mouse cells used in the high throughput screen. […] As a consequence, the compounds will have use in treating more than one TNF-α mediated condition, and may be selected according to the manner in which the condition manifests. This corresponds to the use of these compounds in the treatment of human disease.
Normal human dermal fibroblasts were seeded into 96-well plates at 3×10^4 cells/well. Cells were pretreated for 2 hours with […] Actinomycin D and either Compound 44 or DMSO as a vehicle control. Cells were then exposed to 2 ng/ml TNF-α for 24 hours and stained with crystal violet/ethanol. Crystal violet was solubilized with methanol and absorbance at 595 nm was read on a microtiter plate reader.

Data set [3] deals with Vascular Cell Adhesion Molecule (VCAM) expression in primary human umbilical vein endothelial cells. Nature of the data set: VCAM High Throughput Screen (TNF-α driven VCAM expression). It is filed as cell-based. Conditions: HUVEC, TNF 1.0 ng/ml.
Text: as §1
• 1. Plate 4×10^4 L929 cells in 100 μl of complete EMEM in Costar 96 well plates in PM. • 2. The next day, pretreat with compound, inhibitor and control vehicle for 2 hours. • 3. After 2 hours pretreatment, add 10 μl 5 ng/ml human TNF-α and actinomycin D (40 μg/ml final concentration). • 4. Incubate overnight. • 5. In AM, remove supernatant. • 6. Wash on a plate washer (0.9% NaCl). • 7. […] Shake plates on orbital shaker and read at 595 nm on plate reader. […]

As a reminder, the bioavailability is the share of a dose that reaches the circulation, judged against a reference dose that is usually intravenous. Lower therefore signals little systemic uptake. Broadly, the IC50 is the point on the concentration scale where inhibition reaches its midpoint.

In data set [1] (po, species not given), `N#Cc1cccc(C(C(=O)NCC(c2ccccc2)c2ccccc2)N(CCc2c[nH]cn2)C(=O)c2ccccc2C(=O)c2ccccc2)c1` (stereo not drawn) [Compound 44] yielded a bioavailability of 26%. Also, the half-life in data set [1] (unit and species not given, read-out: Pharmacokinetic Parameters t1/2 (converted)) was 2.3 h. The “% Rescue” value in data set [2] (2 μM compound) came out at 18.4%; in data set [2] (4 μM compound) it was 57.1%; in data set [2] (8 μM compound), 109.2%. Further, the “OD 595 nm” value in data set [2] (2 μM compound) was determined as 0.109; in data set [2] (4 μM compound), 0.147; in data set [2] (8 μM compound) it was 0.198. The IC50 in data set [3] turned out to be 24.4 µM.
